Reference: patent US6117661A, “Mutant mono-oxygenase cytochrome P450cam” (BG plc, priority 1995, dated 2000)
Read-outs that look alike come from different tables or passages of the source.

Tests used:
Wild type P450cam [1] = target: T1, Wild type P450cam (Pseudomonas putida, UniProt P00183); format: binding, P. putida; settings: for Wild type ΔSpin high/low: -- = no shift, nd = not determined; for haem spin-state conversion on substrate binding: Soret band 418 nm to 392 nm
P450cam Mutant Y96A = P450cam Mutant Y96A (Pseudomonas putida, UniProt P00183, C335A/Y97A); format: binding, P. putida; settings: for Mutant Y96A ΔSpin high/low: -- = no shift, nd = not determined
Wild type P450cam [2] = target: T1, Wild type P450cam; test: Turnover rate measured as NADH consumption rate; format: biochemical, P. putida; settings: small alkanes; background about 0.07
Method: (§1) A buffered solution (50 mM Tris.HCI, pH 7.4), typically 3 ml in volume, containing 10 uM putidaredoxin, 2 uM putidaredoxin reductase, 1 uM cytochrome P-450cam mono-oxygenase (wild-type or mutant), 200 mM KCI, 50 ug/ml bovine liver catalase (Sigma), and 1 mM target organic compound such as cyclohexylbenzene (added as a 0.1 M stock in ethanol) was preincubated at 30° C. for 5 minutes. The enzymatic reaction was initiated by adding NADH to a total concentration of 2 mM. Further four aliquots of NADH (to increase the NADH concentration by 1 mM each time) were added in intervals of 10 minutes, and 30 minutes into the incubation one aliquot of substrate (to increase the concentration by 1 mM) was also added. The reaction was quenched after 60 minutes by adding 0.5 ml chloroform and vortexing the mixture. The phases were separated by centrifugation (4000 g) at 4° C. The chloroform layer was analyzed by gas chromatography.
(§2) The NADH concentration can be monitored at 340 nm and, in all cases, more substrates and NADH are added during the incubation.
(§3) Turnover rate measured as NADH consumption rate
(§4) (nmole NADH/nmole P450cam/s).

[3] = target: T2, P450cam Y96A (also contains the C334A mutation) (Pseudomonas putida, UniProt P00183, C335A/Y97A); format: biochemical, P. putida; settings: small alkanes
T2 construct: reconstituted with putidaredoxin and putidaredoxin reductase
Method: as §1, §2, §3, §4

[4] = target: T3, P450cam active site mutant Y96A (also C334A) (Pseudomonas putida, UniProt P00183, C335A/Y97A); format: biochemical, P. putida; settings: label = product
T3 construct: reconstituted with putidaredoxin and putidaredoxin reductase
Method: as §1
(§5) For many substrate compounds such as cyclohexylbenzene for which not all the P-450cam-mediated oxidation products are commercially available, the chloroform extracts are evaporated to dryness under a stream of nitrogen. The residues were extracted with hexane and the oxidation products separated by high performance liquid chromatography, eluting with a hexane/isopropanol gradient. The purified products were then identified by mass spectroscopy and particularly nuclear magnetic resonance spectroscopy.
as §2

[5] = target: T4, P450cam active site mutant Y96F (also C334A) (Pseudomonas putida, UniProt P00183, C335A/Y97F); format: biochemical, P. putida; settings: label = product
T4 construct: reconstituted with putidaredoxin and putidaredoxin reductase
Method: as §1, §5, §2

| Structure (SMILES) | Wild type Vs DTT (Wild type P450cam [1]) | Mutant Y96A Vs DTT (P450cam Mutant Y96A) | Mutant Y96A ΔSpin high/low (P450cam Mutant Y96A) | also measured |
| --- | --- | --- | --- | --- |
| c1ccc2c(c1)CCCC2 [1,2,3,4-Tetrahydro naphthalene] | 10 | 40 | 40 | Wild type ΔSpin high/low (Wild type P450cam [1]): 5 |
| C1=Cc2ccccc2CC1 [1,2-Dihydronaphthalene] | 20 | 90 | 30 | Wild type ΔSpin high/low (Wild type P450cam [1]): 5 |
| CCc1cccc2ccccc12 [1-Ethylnaphthalene] |  | 20 | 5 |  |
| CCCC(=O)Oc1cccc2ccccc12 [1-Naphthylbutyrate] | 5 | 5 |  |  |
| CCC(=O)Oc1cccc2ccccc12 [1-Naphthylpropionate] | 20 | 20 | 0 |  |
| CC(C)CC(C)(C)C [2,2,4-trimethyl pentane] |  |  |  | Turnover rate (NADH consumption rate) Wild type (Wild type P450cam [2]): 0.9 nmole NADH/nmole P450cam/s; Turnover rate (NADH consumption rate) Y96A [3]: 5.3 nmole NADH/nmole P450cam/s |
| CCC(C)(C)C [2,2-dimethyl butane] |  |  |  | Turnover rate (NADH consumption rate) Wild type (Wild type P450cam [2]): background; Turnover rate (NADH consumption rate) Y96A [3]: 14.0 nmole NADH/nmole P450cam/s |
| CCCC(C)(C)C [2,2-dimethyl pentane] |  |  |  | Turnover rate (NADH consumption rate) Wild type (Wild type P450cam [2]): 5.2 nmole NADH/nmole P450cam/s; Turnover rate (NADH consumption rate) Y96A [3]: 12.8 nmole NADH/nmole P450cam/s |
| CC(C)C(C)C [2,3-dimethyl butane] |  |  |  | Turnover rate (NADH consumption rate) Wild type (Wild type P450cam [2]): background; Turnover rate (NADH consumption rate) Y96A [3]: 16.8 nmole NADH/nmole P450cam/s |
| CC(C)CC(C)C [2,4-dimethyl pentane] |  |  |  | Turnover rate (NADH consumption rate) Wild type (Wild type P450cam [2]): 0.2 nmole NADH/nmole P450cam/s; Turnover rate (NADH consumption rate) Y96A [3]: 12.6 nmole NADH/nmole P450cam/s |
| CCc1ccc2ccccc2c1 [2-Ethylnaphthalene] |  | 20 | 10 |  |
| O=Cc1ccc2c(c1)Cc1ccccc1-2 [2-Fluorencarboxaldehyde] |  | 50 |  |  |
| CCCCC(C)O (stereo not shown) [2-hexanol] |  |  |  | Products(%) Y96A ([4]; substrate hexane): 26%; Products(%) Y96F ([5]; substrate hexane): 24% |
| CCCCC(C)=O [2-hexanone] |  |  |  | Products(%) Y96A ([4]; substrate hexane): 15%; Products(%) Y96F ([5]; substrate hexane): 10% |
| CCC(C)C [2-methyl butane] |  |  |  | Turnover rate (NADH consumption rate) Wild type (Wild type P450cam [2]): background; Turnover rate (NADH consumption rate) Y96A [3]: 4.6 nmole NADH/nmole P450cam/s |
| CCCCCC(C)C [2-methyl heptane] |  |  |  | Turnover rate (NADH consumption rate) Wild type (Wild type P450cam [2]): background; Turnover rate (NADH consumption rate) Y96A [3]: 2.1 nmole NADH/nmole P450cam/s |
| CCCC(C)C [2-methyl pentane] |  |  |  | Turnover rate (NADH consumption rate) Wild type (Wild type P450cam [2]): 3.8 nmole NADH/nmole P450cam/s; Turnover rate (NADH consumption rate) Y96A [3]: 11.7 nmole NADH/nmole P450cam/s |
| CCCCC(C)(C)O [2-methyl-2-hexanol] |  |  |  | Products(%) Y96A ([4]; substrate 2-methyl hexane): 74%; Products(%) Y96F ([5]; substrate 2-methyl hexane): 72% |
| CCCC(O)C(C)C (stereo not shown) [2-methyl-3-hexanol] |  |  |  | Products(%) Y96A ([4]; substrate 2-methyl hexane): 4%; Products(%) Y96F ([5]; substrate 2-methyl hexane): 7% |
| CCC(CC)CC [3-ethyl pentane] |  |  |  | Turnover rate (NADH consumption rate) Wild type (Wild type P450cam [2]): background; Turnover rate (NADH consumption rate) Y96A [3]: 16.2 nmole NADH/nmole P450cam/s |

| Structure (SMILES) | Wild type Vs DTT (Wild type P450cam [1]) | Mutant Y96A Vs DTT (P450cam Mutant Y96A) | Mutant Y96A ΔSpin high/low (P450cam Mutant Y96A) | also measured |
| --- | --- | --- | --- | --- |
| CCCC(O)CC (stereo not shown) [3-hexanol] |  |  |  | Products(%) Y96A ([4]; substrate hexane): 32%; Products(%) Y96F ([5]; substrate hexane): 50% |
| CCCC(=O)CC [3-hexanone] |  |  |  | Products(%) Y96A ([4]; substrate hexane): 28%; Products(%) Y96F ([5]; substrate hexane): 16% |
| CCC(C)CC [3-methyl pentane] |  |  |  | Turnover rate (NADH consumption rate) Wild type (Wild type P450cam [2]): 1.3 nmole NADH/nmole P450cam/s; Turnover rate (NADH consumption rate) Y96A [3]: 14.2 nmole NADH/nmole P450cam/s |
| CCCC(C)CCC [4-methyl heptane] |  |  |  | Turnover rate (NADH consumption rate) Wild type (Wild type P450cam [2]): 1.4 nmole NADH/nmole P450cam/s; Turnover rate (NADH consumption rate) Y96A [3]: 10.2 nmole NADH/nmole P450cam/s |
| CC(C)CCC(C)O (stereo not shown) [5-methyl-2-hexanol] |  |  |  | Products(%) Y96A ([4]; substrate 2-methyl hexane): 8%; Products(%) Y96F ([5]; substrate 2-methyl hexane): 5% |
| CC(=O)CCC(C)C [5-methyl-2-hexanone] |  |  |  | Products(%) Y96A ([4]; substrate 2-methyl hexane): 14%; Products(%) Y96F ([5]; substrate 2-methyl hexane): 16% |
| O=C1c2ccccc2-c2ccccc21 [9-Fluorenone] | 20 | 5 |  |  |
| CC1(C)[C@@H]2CC[C@@]1(C)C(=O)C2=O [(1R)-(-)-Camphorquinone] | 80 | 80 | 80 | Wild type ΔSpin high/low (Wild type P450cam [1]): 80 |
| CC1(C)C(=O)[C@]2(C)CC[C@H]1C2 [(1R)-(-)-Fenchone] | 70 | 80 | 50 | Wild type ΔSpin high/low (Wild type P450cam [1]): 40 |
| C=C(C)[C@H]1CC=C(C)C(=O)C1 [(S)-(+)-Carvone] | 60 | 80 | 10 | Wild type ΔSpin high/low (Wild type P450cam [1]): 10 |
| O=C1c2ccccc2Cc2ccccc21 [Anthrone] | 5 | 5 |  |  |
| c1ccc(COCc2ccccc2)cc1 [Benzylether] | 5 |  | 55 |  |
| c1ccc(CCc2ccccc2)cc1 [Bibenzyl] |  | 55 | 55 |  |
| c1ccc(-c2ccccc2)cc1 [Biphenyl] | 20 | 90 |  |  |
| C1CCCCC1 [Cyclohexane] |  | 60 | 60 |  |
| C1=CCCCC1 [Cyclohexene] | 5 | 40 | 40 |  |
| O=C(c1ccccc1)C1CCCCC1 [Cyclohexylphenylketone] | 30 |  | 60 |  |
| C1=CC2C3C=CC(C3)C2C1 (stereo not shown) [Dicyclopentadiene] | 80 | 90 | 90 | Wild type ΔSpin high/low (Wild type P450cam [1]): 50 |
| c1ccc(Oc2ccccc2)cc1 [Diphenylether] | 5 | 50 | 20 | Wild type ΔSpin high/low (Wild type P450cam [1]): 10 |
| c1ccc(Cc2ccccc2)cc1 [Diphenylmethane] | 5 |  | 45 |  |

| Structure (SMILES) | Wild type Vs DTT (Wild type P450cam [1]) | Mutant Y96A Vs DTT (P450cam Mutant Y96A) | Mutant Y96A ΔSpin high/low (P450cam Mutant Y96A) | also measured |
| --- | --- | --- | --- | --- |
| CCc1ccccc1 [Ethylbenzene] |  |  | 40 |  |
| c1ccc2c(c1)Cc1ccccc1-2 [Fluorene] |  | 50 |  |  |
| C=CC(=C)C [Isoprene] |  | 10 | 10 |  |
| CC1CCCCC1 [Methylcyclohexane] | 50 | 70 | 100 | Wild type ΔSpin high/low (Wild type P450cam [1]): 50 |
| c1ccc(CNc2ccccc2)cc1 [N-Phenylbenzylamine] | 5 |  | 45 |  |
| CCCCCCCC/C=C\CCCCCCCC(=O)O [Oleic acid] | ~10 | ~20 |  |  |
| O=C(Oc1ccccc1)c1ccccc1 [Phenylbenzoate] | 5 |  |  |  |
| CCCCCCCCCCCCOS(=O)(=O)O [SDS] | 20 | 60 |  |  |
| CC(C)CCCC(C)CCCC(C)CCCCC(C)CCCC(C)CCCC(C)C (stereo not shown) [Squalane] |  | 20 |  |  |
| C=Cc1ccccc1 [Styrene] |  | 30 | 30 |  |
| Cc1ccccc1 [Toluene] |  | 30 | 30 |  |
| C1C2CC3CC1CC(C2)C3 [adamantane, reference compound] |  |  |  | haem spin-state conversion on substrate binding (Wild type P450cam [1]): fully converted the haem to the 5-co-ordinated, high-spin form |
| O=C1C2CC3CC(C2)CC1C3 [adamantanone, reference compound] |  |  |  | haem spin-state conversion on substrate binding (Wild type P450cam [1]): fully converted the haem to the 5-co-ordinated, high-spin form |
| C(=C/c1ccccc1)/c1ccccc1 [cis-Stilbene] | 20 | 50 | 40 |  |
| C1CCCCCC1 [cycloheptane] |  |  |  | Turnover rate (NADH consumption rate) Wild type (Wild type P450cam [2]): 4.4 nmole NADH/nmole P450cam/s; Turnover rate (NADH consumption rate) Y96A [3]: 42.5 nmole NADH/nmole P450cam/s |
| CCCCCCCCCCCC [n-Dodecane] |  | 5 | 5 |  |
| CCCCCCCCC [n-Nonane] |  | 45 | 70 |  |
| CCCCCCCCCCC [n-Undecane] |  | 20 | 20 |  |
| C1CC2CCC1C2 [norbornane, reference compound] |  |  |  | haem spin-state conversion on substrate binding (Wild type P450cam [1]): fully converted the haem to the 5-co-ordinated, high-spin form |
| C1CC[C@H]2CCCC[C@@H]2C1 [trans-Decahydro naphthalene] | 10 | 70 | 90 | Wild type ΔSpin high/low (Wild type P450cam [1]): 20 |
